Data as given in ChEMBL document CHEMBL1201862, “PubChem BioAssay data set” (2004).
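Values below derive from 48-hour exposures of cells grown in 96-well plates, with endpoints linearly interpolated between the two concentrations bracketing the appropriate inhibition level. GI50: concentration for 50% inhibition of growth.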 Active and inactive are the calls of the source. No stated cut-off is given here; in the data, active = GI50 up to about 1.1 µM and inactive = higher.

Columns and labels:
Assay in all cases: NCI tumour cell line growth inhibition, 48 h
[1] = system: A498
[2] = system: 786-0
[3] = system: SNB-19
[4] = system: COLO 205
[5] = system: HT-29
[6] = system: RPMI-8226
[7] = system: NCI-H226
[8] = system: KM12
[9] = system: SK-MEL-2
[10] = system: K562
[11] = system: LOX IMVI
[12] = system: MDA-MB-435
[13] = system: HCT-116
[14] = system: OVCAR-5
[15] = system: HOP-92
[16] = system: ACHN
[17] = system: MDA-N
[18] = system: PC-3
[19] = system: SNB-75
[20] = system: BT-549
[21] = system: SR
[22] = system: UACC-257
[23] = system: OVCAR-8
[24] = system: MCF7
[25] = system: NCI-H522
[26] = system: MDA-MB-231
[27] = system: SK-OV-3
[28] = system: NCI-H23
[29] = system: Hs-578T
[30] = system: SF-295
[31] = system: SK-MEL-28
[32] = system: T47D
[33] = system: RXF 393
[34] = system: UACC-62
[35] = system: HOP-62
[36] = system: SF-268
[37] = system: M14
[38] = system: CAKI-1
[39] = system: TK-10
[40] = system: A549
[41] = system: OVCAR-3
[42] = system: HCC 2998
[43] = system: IGROV-1
[44] = system: DU-145
[45] = system: SN12C
[46] = system: CCRF-CEM
[47] = system: EKVX
[48] = system: SF-539
[49] = system: SK-MEL-5
[50] = system: NCI/ADR-RES
[51] = system: U-251
[52] = system: SW-620
[53] = system: HL-60
[54] = system: OVCAR-4
[55] = system: NCI-H460
[56] = system: HCT-15
[57] = system: MOLT-4
[58] = system: Malme-3M
[59] = system: UO-31

Measured: GI50

C=CCOc1ccc(C2(c3ccc(OCC=C)cc3)C(=O)Nc3ccccc32)cc1
inactive: [1] > 10 µM | [2] > 10 µM | [3] > 10 µM | [4] 7.19 µM | [5] > 10 µM | [6] > 10 µM | [7] > 10 µM | [8] > 10 µM | [9] > 10 µM | [10] > 10 µM | [11] > 10 µM | [12] > 10 µM | [13] > 10 µM | [14] > 10 µM | [15] > 10 µM | [16] > 10 µM | [17] > 10 µM | [18] > 10 µM | [19] > 10 µM | [20] 9.31 µM | [21] > 10 µM | [22] > 10 µM | [23] > 10 µM | [24] 8.57 µM | [25] > 10 µM | [26] > 10 µM | [27] > 10 µM | [28] > 10 µM | [29] 1.46 µM | [30] > 10 µM | [31] > 10 µM | [32] 8.13 µM | [33] > 10 µM | [34] > 10 µM | [35] > 10 µM | [36] > 10 µM | [37] > 10 µM | [38] > 10 µM | [39] > 10 µM | [40] > 10 µM | [41] > 10 µM | [42] > 10 µM | [43] > 10 µM | [44] > 10 µM | [45] > 10 µM | [46] > 10 µM | [47] > 10 µM | [48] > 10 µM | [49] > 10 µM | [50] > 10 µM | [51] > 10 µM | [52] > 10 µM | [53] > 10 µM | [54] 3.4 µM | [55] > 10 µM | [57] > 10 µM | [58] > 10 µM
> 10 µM: [56]

COc1ccc(/C=N/N=C(\N)NO)c(O)c1
6.24 µM: [56]
inactive: [1] 8.77 µM | [2] > 10 µM | [3] > 10 µM | [4] > 10 µM | [5] 5.66 µM | [6] > 10 µM | [7] 3.98 µM | [8] 4.57 µM | [9] > 10 µM | [10] 4.41 µM | [11] 3.27 µM | [12] 2.09 µM | [13] 3.53 µM | [14] > 10 µM | [15] > 10 µM | [16] 5.96 µM | [17] > 10 µM | [18] 3.48 µM | [59] > 10 µM | [20] > 10 µM | [21] 2.81 µM | [22] 6.52 µM | [23] > 10 µM | [24] 4.34 µM | [25] > 10 µM | [26] > 10 µM | [27] 7.38 µM | [28] > 10 µM | [29] > 10 µM | [30] > 10 µM | [31] > 10 µM | [32] > 10 µM | [33] > 10 µM | [34] 4.53 µM | [35] > 10 µM | [36] > 10 µM | [37] 5.01 µM | [38] 4.11 µM | [39] > 10 µM | [40] > 10 µM | [41] 5.51 µM | [42] > 10 µM | [43] 8.77 µM | [44] > 10 µM | [45] 8.53 µM | [46] > 10 µM | [47] > 10 µM | [48] > 10 µM | [49] 3.53 µM | [50] 3.92 µM | [51] > 10 µM | [52] > 10 µM | [53] 4.39 µM | [54] > 10 µM | [55] 4.91 µM | [57] > 10 µM | [58] 9.75 µM
active: [19] 0.0678 µM

CC(C)/C(Cl)=N/OC(=O)Nc1ccc(Br)cc1
2.12 µM: [56]
inactive: [1] 18.4 µM | [2] 1.88 µM | [3] 20.8 µM | [4] 1.88 µM | [5] 5.83 µM | [6] 1.75 µM | [7] 16.7 µM | [8] 12.9 µM | [9] 16.8 µM | [10] 1.23 µM | [11] 1.32 µM | [12] 11 µM | [13] 2.9 µM | [14] 14.6 µM | [15] 1.77 µM | [16] 1.74 µM | [17] 4.83 µM | [18] 13.6 µM | [59] 11.6 µM | [19] 18.6 µM | [20] 4.29 µM | [21] 1.83 µM | [22] 15.2 µM | [23] 14.6 µM | [24] 7.66 µM | [25] 1.52 µM | [26] 16.1 µM | [27] 16.7 µM | [28] 13.3 µM | [29] 21.7 µM | [30] 15.2 µM | [31] 3.76 µM | [32] 2.67 µM | [33] 10.2 µM | [34] 3.82 µM | [35] 16.9 µM | [36] 17.1 µM | [37] 2.78 µM | [38] 1.73 µM | [39] 13.2 µM | [40] 18.2 µM | [41] 4.89 µM | [42] 15.5 µM | [43] 13 µM | [44] 13.7 µM | [45] 2.16 µM | [46] 1.36 µM | [47] 1.97 µM | [48] 13.2 µM | [49] 12.9 µM | [50] 13.4 µM | [51] 18.7 µM | [52] 2.2 µM | [53] 2.58 µM | [54] 12.7 µM | [55] 15 µM | [57] 2.39 µM | [58] 1.69 µM
